Assay type in all cases: functional
The subject of one experiment is Bacillus subtilis. The experiment can be described thus: Antibacterial activity against Bacillus subtilis ATCC 9372 incubated for 24 hrs by CLSI protocol based broth microdilution method. The settings on record: ATCC 9372, 24 h. In general terms: Broth dilution looks for growth in wells or tubes with falling amounts of substance.
The next experiment has as its system Bacillus pumilus. The experiment can be described thus: Antibacterial activity against Bacillus pumilus CMCC63202 incubated for 24 hrs by CLSI protocol based broth microdilution method. The note with it: CMCC63202, 24 h.
The subject of experiment [1] is Staphylococcus aureus. In words: Antibacterial activity against Staphylococcus aureus ATCC 25923 incubated for 24 hrs by CLSI protocol based broth microdilution method. The note with it: ATCC 25923, 24 h.
For experiment [2], the system named is Staphylococcus aureus. The experiment can be described thus: Antibacterial activity against methicillin-resistant Staphylococcus aureus ATCC 43300 incubated for 24 hrs by CLSI protocol based broth microdilution method. The settings on record: ATCC 43300, 24 h.
Experiment [3] relates to Staphylococcus aureus. In words: Antibacterial activity against penicillin-resistant Staphylococcus aureus clinical isolate incubated for 24 hrs by CLSI protocol based broth microdilution method.
In experiment [4] the test system is Staphylococcus aureus. The experiment can be described thus: Antibacterial activity against Staphylococcus aureus clinical isolate incubated for 24 hrs by CLSI protocol based broth microdilution method.
The test system of a further experiment is Escherichia coli. The experiment can be described thus: Antibacterial activity against Escherichia coli ATCC 25922 incubated for 24 hrs by CLSI protocol based broth microdilution method. The settings on record: ATCC 25922, 24 h.
For another experiment, the system named is Pseudomonas aeruginosa. In words: Antibacterial activity against Pseudomonas aeruginosa ATCC 27853 incubated for 24 hrs by CLSI protocol based broth microdilution method. The note with it: ATCC 27853, 24 h.

Values after ≈ are worked out from the molar mass of the structure shown.

As usually defined, the MIC is the smallest concentration in the dilution series that meets the test's criterion for growth inhibition. A lower MIC goes with inhibition by little substance. Regarding `CCc1ccc(-n2nc(COc3ccc(F)c(C(N)=O)c3F)oc2=O)cc1`, the MIC with Bacillus subtilis is 0.5 µg/mL (≈ 1.33 µM); against Bacillus pumilus, 4 µg/mL (≈ 10.7 µM); in the experiment on Staphylococcus aureus [1] it was 2 µg/mL (≈ 5.33 µM); with Staphylococcus aureus [2], 2 µg/mL (≈ 5.33 µM); in the experiment with Staphylococcus aureus [3], 4 µg/mL (≈ 10.7 µM); against Staphylococcus aureus [4], 2 µg/mL (≈ 5.33 µM). For the same compound, the MIC against Escherichia coli and against Pseudomonas aeruginosa was greater than 64 µg/mL throughout.
`NC(=O)c1c(F)ccc(OCc2nn(Cc3ccc(Br)cc3)c(=O)o2)c1F`: the minimum inhibitory concentration (MIC) is 8 µg/mL (≈ 18.2 µM) in the experiment with Bacillus subtilis; 32 µg/mL (≈ 72.7 µM) in the experiment with Bacillus pumilus; greater than 64 µg/mL in the experiment on Staphylococcus aureus [1]; 64 µg/mL (≈ 145 µM) against Staphylococcus aureus [2]; greater than 64 µg/mL with Staphylococcus aureus [3]; 64 µg/mL (≈ 145 µM) in the experiment on Staphylococcus aureus [4]. The minimum inhibitory concentration (MIC) against Escherichia coli and in the experiment with Pseudomonas aeruginosa was greater than 64 µg/mL each time.
As for `CCCCc1ccc(N2N=C(COc3ccc(F)c(C(N)=O)c3F)CC2=O)cc1`, the MIC against Bacillus subtilis was greater than 64 µg/mL; with Bacillus pumilus, greater than 64 µg/mL; with Staphylococcus aureus [1], greater than 64 µg/mL; in the experiment on Staphylococcus aureus [2], greater than 64 µg/mL; in the experiment on Staphylococcus aureus [3] it was 64 µg/mL (≈ 159 µM); against Escherichia coli, greater than 64 µg/mL. In addition, the MIC in the experiment with Pseudomonas aeruginosa is greater than 64 µg/mL.
Take `Cc1cc(Cl)ccc1-n1nc(COc2ccc(F)c(C(N)=O)c2F)oc1=O`: the MIC turned out to be 0.5 µg/mL (≈ 1.26 µM) against Bacillus subtilis; 0.5 µg/mL (≈ 1.26 µM) in the experiment on Bacillus pumilus; 4 µg/mL (≈ 10.1 µM) in the experiment with Staphylococcus aureus [1]; 2 µg/mL (≈ 5.05 µM) against Staphylococcus aureus [2]; 4 µg/mL (≈ 10.1 µM) with Staphylococcus aureus [3]; 4 µg/mL (≈ 10.1 µM) against Staphylococcus aureus [4]. The MIC against Escherichia coli and against Pseudomonas aeruginosa was greater than 64 µg/mL in each case.
Consider `CC(C)(C)c1ccc(Cn2nc(COc3ccc(F)c(C(N)=O)c3F)oc2=O)cc1`, for which the MIC in the experiment with Bacillus subtilis is 32 µg/mL (≈ 76.7 µM); against Bacillus pumilus it was 32 µg/mL (≈ 76.7 µM); against Staphylococcus aureus [1], greater than 64 µg/mL; in the experiment with Staphylococcus aureus [2], greater than 64 µg/mL; with Staphylococcus aureus [3], greater than 64 µg/mL; in the experiment on Staphylococcus aureus [4] it was greater than 64 µg/mL. Further, the MIC in the experiment on Escherichia coli and against Pseudomonas aeruginosa was greater than 64 µg/mL throughout.
Consider `CC(C)(C)c1ccc(-c2nn(COc3ccc(F)c(C(N)=O)c3F)c(=O)o2)cc1`, for which the MIC against Bacillus subtilis is 8 µg/mL (≈ 19.8 µM); in the experiment with Bacillus pumilus, 32 µg/mL (≈ 79.3 µM); with Staphylococcus aureus [1], greater than 64 µg/mL; in the experiment with Staphylococcus aureus [2], greater than 64 µg/mL; against Staphylococcus aureus [3], greater than 64 µg/mL; against Staphylococcus aureus [4], greater than 64 µg/mL. Moreover, the MIC against Escherichia coli and against Pseudomonas aeruginosa was greater than 64 µg/mL each time.
`COc1cccc(-n2nc(COc3ccc(F)c(C(N)=O)c3F)oc2=O)c1`: the minimal inhibitory concentration (MIC) with Bacillus subtilis is 16 µg/mL (≈ 42.4 µM); against Bacillus pumilus it was greater than 64 µg/mL; with Staphylococcus aureus [1], 64 µg/mL (≈ 170 µM); against Staphylococcus aureus [2] it was greater than 64 µg/mL; against Staphylococcus aureus [3] it was greater than 64 µg/mL; in the experiment with Staphylococcus aureus [4], 64 µg/mL (≈ 170 µM). Also, the MIC with Escherichia coli and against Pseudomonas aeruginosa was greater than 64 µg/mL each time.
Consider `NC(=O)c1c(F)ccc(OCc2nn(-c3ccc(F)cc3)c(=O)o2)c1F`, for which the MIC against Bacillus subtilis was 2 µg/mL (≈ 5.48 µM); against Bacillus pumilus, 8 µg/mL (≈ 21.9 µM); with Staphylococcus aureus [1] it was 16 µg/mL (≈ 43.8 µM); against Staphylococcus aureus [2] it was 8 µg/mL (≈ 21.9 µM); against Staphylococcus aureus [3], 16 µg/mL (≈ 43.8 µM); in the experiment on Staphylococcus aureus [4], 2 µg/mL (≈ 5.48 µM). For the same compound, the MIC in the experiment with Escherichia coli and with Pseudomonas aeruginosa was greater than 64 µg/mL throughout.
Turning to `CN(C)n1c(COc2ccc(F)c(C(N)=O)c2F)nn(-c2ccc(Br)cc2)c1=O`, the MIC in the experiment on Bacillus subtilis is 32 µg/mL (≈ 68.3 µM); in the experiment with Bacillus pumilus, 32 µg/mL (≈ 68.3 µM); with Staphylococcus aureus [1] it was 32 µg/mL (≈ 68.3 µM); against Staphylococcus aureus [2] it was 16 µg/mL (≈ 34.2 µM); against Staphylococcus aureus [3], 32 µg/mL (≈ 68.3 µM); in the experiment on Escherichia coli it was greater than 64 µg/mL. Moreover, the minimal inhibitory concentration (MIC) in the experiment on Pseudomonas aeruginosa is greater than 64 µg/mL.
Take `CC(C)Cn1c(COc2ccc(F)c(C(N)=O)c2F)nn(-c2ccc(Br)cc2)c1=O`: the MIC in the experiment on Bacillus subtilis, against Bacillus pumilus, in the experiment with Staphylococcus aureus [1], with Staphylococcus aureus [2], in the experiment on Staphylococcus aureus [3] and in the experiment with Escherichia coli was greater than 64 µg/mL in each case. Besides, in the experiment on Pseudomonas aeruginosa, the minimal inhibitory concentration (MIC) is greater than 64 µg/mL.
`CC[C@H]1OC(=O)[C@H](C)[C@@H](O[C@H]2C[C@@](C)(OC)[C@@H](O)[C@H](C)O2)[C@H](C)[C@@H](O[C@@H]2O[C@H](C)C[C@H](N(C)C)[C@H]2O)[C@](C)(O)C[C@@H](C)C(=O)[C@H](C)[C@@H](O)[C@]1(C)O` [ERYTHROMYCIN]: the MIC against Bacillus subtilis was no more than 0.125 µg/mL; with Bacillus pumilus it was no more than 0.125 µg/mL; against Staphylococcus aureus [1] it was no more than 0.125 µg/mL; against Staphylococcus aureus [2] it was greater than 64 µg/mL; against Staphylococcus aureus [4], greater than 64 µg/mL; in the experiment with Escherichia coli, 16 µg/mL (≈ 21.8 µM). In the experiment with Pseudomonas aeruginosa, this compound yielded an MIC of 32 µg/mL (≈ 43.6 µM).
`CCCCCCCCn1c(COc2ccc(F)c(C(N)=O)c2F)nn(-c2ccc(Br)cc2)c1=O`: the minimum inhibitory concentration (MIC) against Bacillus subtilis, against Bacillus pumilus, in the experiment on Staphylococcus aureus [1], in the experiment with Staphylococcus aureus [2], with Staphylococcus aureus [3] and against Escherichia coli was greater than 64 µg/mL throughout. Also, the MIC with Pseudomonas aeruginosa was greater than 64 µg/mL.
On to `NC(=O)c1c(F)ccc(OCc2nn(-c3ccc(Br)cc3)c(=O)n2N)c1F`, for which the MIC in the experiment on Bacillus subtilis is 16 µg/mL (≈ 36.3 µM); with Bacillus pumilus it was 64 µg/mL (≈ 145 µM); against Staphylococcus aureus [1], greater than 64 µg/mL; against Staphylococcus aureus [2], greater than 64 µg/mL; against Staphylococcus aureus [3], greater than 64 µg/mL; against Escherichia coli, greater than 64 µg/mL. This compound yielded a minimum inhibitory concentration (MIC) against Pseudomonas aeruginosa greater than 64 µg/mL.
For the compound `CC(C)CCn1c(COc2ccc(F)c(C(N)=O)c2F)nn(-c2ccc(Br)cc2)c1=O`, the MIC against Bacillus subtilis, with Bacillus pumilus, in the experiment with Staphylococcus aureus [1], with Staphylococcus aureus [2], against Staphylococcus aureus [3] and in the experiment with Escherichia coli was greater than 64 µg/mL in each case. This compound also had a minimum inhibitory concentration (MIC) against Pseudomonas aeruginosa greater than 64 µg/mL.
For the compound `CCCn1c(COc2ccc(F)c(C(N)=O)c2F)nn(-c2ccc(Br)cc2)c1=O`, the MIC is 32 µg/mL (≈ 68.5 µM) against Bacillus subtilis; greater than 64 µg/mL in the experiment with Bacillus pumilus; greater than 64 µg/mL in the experiment on Staphylococcus aureus [1]; 32 µg/mL (≈ 68.5 µM) in the experiment on Staphylococcus aureus [2]; greater than 64 µg/mL in the experiment with Staphylococcus aureus [3]; greater than 64 µg/mL against Escherichia coli. In the experiment on Pseudomonas aeruginosa, this compound came in with a minimal inhibitory concentration (MIC) greater than 64 µg/mL.
Regarding `CC(C)(C)c1ccc(N2N=C(COc3ccc(F)c(C(N)=O)c3F)CC2=O)cc1`, the minimum inhibitory concentration (MIC) was greater than 64 µg/mL against Bacillus subtilis; greater than 64 µg/mL against Bacillus pumilus; greater than 64 µg/mL in the experiment on Staphylococcus aureus [1]; greater than 64 µg/mL against Staphylococcus aureus [2]; 64 µg/mL (≈ 159 µM) in the experiment with Staphylococcus aureus [3]; greater than 64 µg/mL against Escherichia coli. This compound also gave a minimum inhibitory concentration (MIC) against Pseudomonas aeruginosa greater than 64 µg/mL.
Regarding `NC(=O)c1c(F)ccc(OCc2nn(-c3ccc(Br)cc3)c(=O)n2Cc2ccccc2)c1F`, the MIC with Bacillus subtilis, in the experiment with Bacillus pumilus, in the experiment on Staphylococcus aureus [1], against Staphylococcus aureus [2], with Staphylococcus aureus [3] and in the experiment with Escherichia coli was greater than 64 µg/mL in each case. Further, the MIC in the experiment on Pseudomonas aeruginosa is greater than 64 µg/mL.
`CCCCn1c(COc2ccc(F)c(C(N)=O)c2F)nn(-c2ccc(Br)cc2)c1=O`: the minimal inhibitory concentration (MIC) with Bacillus subtilis, with Bacillus pumilus, against Staphylococcus aureus [1], against Staphylococcus aureus [2], in the experiment on Staphylococcus aureus [3] and in the experiment with Escherichia coli was greater than 64 µg/mL throughout. The minimum inhibitory concentration (MIC) against Pseudomonas aeruginosa is greater than 64 µg/mL.
For `NC(=O)c1c(F)ccc(OCC2=NN(c3ccc(Cl)cc3)C(=O)C2)c1F`, the MIC against Bacillus subtilis, against Bacillus pumilus, in the experiment on Staphylococcus aureus [1], against Staphylococcus aureus [2], against Staphylococcus aureus [3] and with Escherichia coli was greater than 64 µg/mL throughout. Moreover, the MIC in the experiment on Pseudomonas aeruginosa was greater than 64 µg/mL.
For the compound `Cn1c(COc2ccc(F)c(C(N)=O)c2F)nn(-c2ccc(Br)cc2)c1=O`, the MIC against Bacillus subtilis was 64 µg/mL (≈ 146 µM); against Bacillus pumilus, 1 µg/mL (≈ 2.28 µM); with Staphylococcus aureus [1], greater than 64 µg/mL; in the experiment on Staphylococcus aureus [2], greater than 64 µg/mL; in the experiment with Staphylococcus aureus [3], greater than 64 µg/mL; with Escherichia coli, greater than 64 µg/mL. For the same compound, the MIC against Pseudomonas aeruginosa was greater than 64 µg/mL.

(Values after ChEMBL document CHEMBL4387753 (Bioorg Med Chem, 2019).)
